Measurements reported in paper PMC8307506, “Identification of Dihydromyricetin and Metabolites in Serum and Brain Associated with Acute Anti-Ethanol Intoxicating Effects in Mice” (International Journal of Molecular Sciences, 2021).

Assays:
[1] = system: P-glycoprotein (Pgp) efflux transporters; parameters: method as in PMID 33810134, PMID 25985195; conditions: cited from earlier work
[2] = target: T1, α5β3γ2 GABAA receptors (Homo sapiens, UniProt P18507+P28472+P31644); experiment: Two-electrode voltage clamp electrophysiology in Xenopus oocytes in the presence of GABA; format: cell-based; conditions: compound 10 µM, GABA 10 µM
T1 construct: expressed in transfected cells; host or cells: Xenopus oocytes (injected with cDNA)
Description: Xenopus oocytes were stored in incubation media (pH 7.5), consisting of ND96 supplemented with 2 mM sodium pyruvate, […] gentamycin, and 10 mL heat inactivated HyClone horse serum. Stage 4 to 5 oocytes were injected with 40 nL of cDNA coding for α5, β3, and γ2 subunits in a ratio of 1:1:10, utilizing a Drummond Nanoject III. Injected oocytes were stored at 18 °C and used in electrophysiology studies within 2–7 days of injection.
Whole cell two-electrode voltage clamp (TEVC) recording were conducted on oocytes in the presence of GABA, according to previously reported methods. Oocytes were voltage clamped at a membrane potential of −70 mV. The oocyte recording chamber was continuously perfused with modified bath solution (MBS) with select compound (10 µM) and GABA (10 µM), with a final concentration of 1% DMSO [22, 44]. […] Oocytes were perfused at a rate of 3 mL/min. Electrophysiology recordings were conducted in triplicate compound for each compound. The change of GABAAR activity was determined by comparison of GABAAR potentiation to the EC20 with control saline in the presence of GABA.
Pharmacokinetic parameters were calculated using noncompartmental analysis. Elimination half-life (T1/2) was calculated with R software from the linear regression of the terminal phase of the log serum concentration-time curve. The AUC0→24 was calculated with OriginLab software by trapezoidal analysis of the serum concentration-time plot. Cmax and Tmax were determined directly from observed data. Data are expressed as mean ± SEM. Statistical significance between AUC0→24 among test groups was calculated with an independent t-test (GraphPad software, San Diego, CA, USA). Time to LORR was analyzed by repeated measured ANOVA. Tolerance was determined by mean split in LORR response and confirmed with paired t-test (Week 1 vs. Week 8). Statistical significance of serum concentrations for individual time points was calculated using a two-way analysis of variance (ANOVA) analysis. Post hoc Bonferroni tests were performed when justified. Statistical significance of electrophysiology results compound GABAergic modulation was determined using a paired t-test (Vehicle control vs. Compound, GraphPad software, San Diego CA, USA). p < 0.05 was considered significant.

T1 sequence (P31644 32-462): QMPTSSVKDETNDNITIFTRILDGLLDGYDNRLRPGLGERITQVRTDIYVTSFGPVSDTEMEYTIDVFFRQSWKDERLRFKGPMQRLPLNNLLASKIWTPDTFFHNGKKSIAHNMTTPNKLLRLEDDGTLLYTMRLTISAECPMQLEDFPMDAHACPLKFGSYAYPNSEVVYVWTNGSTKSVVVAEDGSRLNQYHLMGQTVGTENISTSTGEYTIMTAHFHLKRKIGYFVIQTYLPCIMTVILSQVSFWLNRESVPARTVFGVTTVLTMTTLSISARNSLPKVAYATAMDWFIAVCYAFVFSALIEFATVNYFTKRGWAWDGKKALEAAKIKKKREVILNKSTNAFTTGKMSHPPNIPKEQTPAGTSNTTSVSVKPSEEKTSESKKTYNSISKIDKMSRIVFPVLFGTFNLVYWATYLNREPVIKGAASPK
T1 sequence (P28472 26-473): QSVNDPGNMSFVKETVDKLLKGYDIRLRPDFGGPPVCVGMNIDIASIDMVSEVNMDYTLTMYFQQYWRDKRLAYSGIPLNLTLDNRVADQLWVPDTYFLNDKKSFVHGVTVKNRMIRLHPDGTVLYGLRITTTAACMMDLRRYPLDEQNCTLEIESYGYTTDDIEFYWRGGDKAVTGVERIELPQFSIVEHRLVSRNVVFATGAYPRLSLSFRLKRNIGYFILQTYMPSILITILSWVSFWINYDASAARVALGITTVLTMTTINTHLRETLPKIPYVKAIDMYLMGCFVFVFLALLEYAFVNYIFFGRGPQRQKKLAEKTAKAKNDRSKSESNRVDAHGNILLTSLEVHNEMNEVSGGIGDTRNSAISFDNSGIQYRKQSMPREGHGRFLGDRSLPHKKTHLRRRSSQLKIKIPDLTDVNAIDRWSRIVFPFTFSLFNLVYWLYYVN
T1 sequence (P18507 40-475): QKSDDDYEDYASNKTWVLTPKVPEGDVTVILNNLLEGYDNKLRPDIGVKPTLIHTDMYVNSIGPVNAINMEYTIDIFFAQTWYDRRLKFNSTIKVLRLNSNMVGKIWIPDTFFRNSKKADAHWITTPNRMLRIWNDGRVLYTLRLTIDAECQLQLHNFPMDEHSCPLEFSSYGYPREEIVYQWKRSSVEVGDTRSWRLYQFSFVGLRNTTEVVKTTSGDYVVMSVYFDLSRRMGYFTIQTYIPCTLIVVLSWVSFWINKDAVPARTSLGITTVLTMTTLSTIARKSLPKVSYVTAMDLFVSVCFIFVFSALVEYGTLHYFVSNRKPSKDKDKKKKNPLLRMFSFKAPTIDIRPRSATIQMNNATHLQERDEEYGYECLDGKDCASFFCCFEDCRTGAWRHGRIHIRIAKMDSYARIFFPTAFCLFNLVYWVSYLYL

GABAAR potentiation [2]: +43.2%
GABAAR potentiation ([2]; mean ± SEM): +43.2 ± 5.6
SMILES: O=C1c2c(O)cc(O)cc2O[C@H](c2cc(O)c(O)c(O)c2)[C@H]1O [DHM, Dihydromyricetin]
Pgp interaction [1]: Pgp substate and inhibitor
